In ChEMBL document CHEMBL4840357, “Functionalized Dioxonaphthoimidazoliums: A Redox Cycling Chemotype with Potent Bactericidal Activities against Mycobacterium tuberculosis” (J Med Chem, 2021):
Converted amounts (≈) assume the structure as drawn. The source made the active and inactive calls. No cut-off for these calls is given here.

Each molecule was assayed on Mycobacterium tuberculosis variant bovis BCG (assay: Induction of ROS generation in Mycobacterium bovis BCG ATCC 35734 at 2 times of MIC90 after 90 mins by cellrox-green reagent based assay). Details: not given.
Type: functional, organism-based

Compound | Activity
CCCCCCn1c(C)nc2c1C(=O)c1ccccc1C2=O | Active
CCCCCCCCn1c(C)nc2c1C(=O)c1ccccc1C2=O | Active

What follows are molecules tested on Mycobacterium tuberculosis variant bovis BCG (assay: Induction of oxidative stress Mycobacterium bovis BCG-pfurA-RFP ATCC 35734 assessed as activation of pfurA at 0.5 to 2 times MIC90 after 24 hrs by fluorescence assay). Details: not given.
Type: functional, organism-based

Compound | Activity
CCCCCCn1c(C)nc2c1C(=O)c1ccccc1C2=O | inactive
CCCCCCCCn1c(C)nc2c1C(=O)c1ccccc1C2=O | inactive

What follows are molecules tested on Mycobacterium tuberculosis variant bovis BCG (assay: Antimycobacterial activity against Mycobacterium bovis BCG ATCC 35734 incubated for 5 days by broth dilution method). Details: ATCC 35734, 120 h, time 5 day.
Type: functional

Compound | MIC90 [µM] | MIC50 [µM]
CCCCn1c2c([n+](C(C)CC)c1C)C(=O)c1ccccc1C2=O (stereo not given) | 3.1 | 
CC[n+]1c2c(n(C)c1C)C(=O)c1ccccc1C2=O | 22 | 
Cc1n(C(C)C)c2c([n+]1C1CC1)C(=O)c1ccccc1C2=O | 35 | 
CCCCCCCC[n+]1c2c(n(CC(C)C)c1C)C(=O)c1ccccc1C2=O | 0.26 | 0.14
CCCCCCn1c2c([n+](CCCCCC)c1C)C(=O)c1ccccc1C2=O | 0.22 | 0.11
CCCCn1c2c([n+](CCC3CCCCC3)c1C)C(=O)c1ccccc1C2=O | 0.37 | 
CCCCCCCCCCn1c2c([n+](C(C)CC)c1C)C(=O)c1ccccc1C2=O (stereo not given) | 0.52 | 
CCCCCCCCn1c2c([n+](CCCCC)c1C)C(=O)c1ccccc1C2=O | 0.33 | 
Cc1n(C)c2c([n+]1C(C)C)C(=O)c1ccccc1C2=O | 6.2 | 
Cc1n(CC(C)C)c2c([n+]1C)C(=O)c1ccccc1C2=O | 6.3 | 
CCC(C)[n+]1c2c(n(C(C)C)c1C)C(=O)c1ccccc1C2=O (stereo not given) | 11 | 
CCCCCCCCn1c2c([n+](CCCC)c1C)C(=O)c1cccnc1C2=O | 3.3 | 
CCCCCCn1c2c([n+](CCCCCC)c1C)C(=O)c1cccnc1C2=O | 2.3 | 
CCCCCCCCn1c2c([n+](CCCCCC)c1C)C(=O)c1ccccc1C2=O | 0.34 | 
CCCCn1c2c([n+](C3CCCCCCC3)c1C)C(=O)c1ccccc1C2=O | 0.6 | 
CCCCCCCCn1c(C)nc2ccccc21 | 23 (≈ 5.62 µg/mL) | 
CCCCn1c2c([n+](CCCC)c1C)C(=O)c1ccncc1C2=O | 21 | 
CCCn1c2c([n+](C(C)C)c1C)C(=O)c1ccccc1C2=O | 21 | 
CCCCCCn1c(C)nc2c1C(=O)c1ccccc1C2=O | 15 (≈ 4.45 µg/mL) | 
NNC(=O)c1ccncc1 [ISONIAZID] |  | 1.6 (≈ 0.219 µg/mL)
CCCn1c(C)nc2c1C(=O)c1ccccc1C2=O | > 50 | 

Compound | MIC90 [µM] | MIC50 [µM]
CCC(C)[n+]1c2c(n(CC)c1C)C(=O)c1ccccc1C2=O (stereo not given) | 11 | 
CCCCn1c(C)nc2ccccc21 | > 50 | 
CCCCCCCCCC[n+]1c2c(n(CC(C)C)c1C)C(=O)c1ccccc1C2=O | 0.36 | 
CCC(C)[n+]1c2c(n(C)c1C)C(=O)c1ccccc1C2=O (stereo not given) | 13 | 
Cc1n(C)c2c([n+]1C1CC1)C(=O)c1ccccc1C2=O | 34 | 
CCCCCCCCn1c(C)[n+](CCCC)c2ccccc21 | > 50 | 
Cc1n(C)c2c([n+]1C)C(=O)c1ccccc1C2=O | 40 | 
CCCCCCCCn1c2c([n+](CCCCCCCC)c1C)C(=O)c1cccnc1C2=O | 10 | 
CCCCn1c2c([n+](CCCN3CCOCC3)c1C)C(=O)c1ccccc1C2=O | 13 | 
CCCCCCCCn1c2c([n+](C(C)CC)c1C)C(=O)c1ccccc1C2=O (stereo not given) | 0.46 | 
CCCCn1c2c([n+](CC3CCCCC3)c1C)C(=O)c1ccccc1C2=O | 0.35 | 
CCCCCn1c(C)nc2c1C(=O)c1ccccc1C2=O | 39 (≈ 11 µg/mL) | 
CCCCn1c2c([n+](CCCC)c1C)C(=O)c1cccnc1C2=O | 12 | 
CCCCCC[n+]1c2c(n(CC(C)C)c1C)C(=O)c1ccccc1C2=O | 0.3 | 0.18
CCCCCCCCCCn1c(C)nc2c1C(=O)c1ccccc1C2=O | 47 (≈ 16.6 µg/mL) | 
CCC[n+]1c2c(n(CC(C)C)c1C)C(=O)c1ccccc1C2=O | 3 | 
CCCCCCn1c2c([n+](C3CCC4(CCCCC4)CC3)c1C)C(=O)c1ccccc1C2=O | 0.15 | 
CCCCn1c2c([n+](CCCC)c1C)C(=O)c1ccccc1C2=O | 1.9 | 
CCCCn1c2c([n+](Cc3ccccc3)c1C)C(=O)c1ccccc1C2=O | 0.43 | 
CCCn1c2c([n+](CCC)c1C)C(=O)c1ccccc1C2=O | 25 | 
CCCn1c2c([n+](C(C)CC)c1C)C(=O)c1ccccc1C2=O (stereo not given) | 5.5 | 

Compound | MIC90 [µM] | MIC50 [µM]
CCCCCCn1c2c([n+](CCCCCC)c1C)C(=O)c1ccncc1C2=O | 5.4 | 
CCCCCCCCn1c2c([n+](CCCCCCCC)c1C)C(=O)c1ccncc1C2=O | 1.1 | 
CCCCCCCCn1c2c([n+](CCCCCCCC)c1C)C(=O)c1ccccc1C2=O | 0.88 | 
Cc1nc2c(n1C)C(=O)c1ccccc1C2=O | > 50 | 
CCCCCCCCCn1c2c([n+](CCCCCCCCC)c1C)C(=O)c1ccncc1C2=O | 2.6 | 
CCCCn1c2c([n+](C3CC3)c1C)C(=O)c1ccccc1C2=O | 6.9 | 
CCCCn1c2c([n+](C3CCCCC3)c1C)C(=O)c1ccccc1C2=O | 1.4 | 
Cc1n(CC(C)C)c2c([n+]1C1CC1)C(=O)c1ccccc1C2=O | 6 | 
Cc1n(CC(C)C)c2c([n+]1CC(C)C)C(=O)c1ccccc1C2=O | 1.9 | 
Cc1n(CC(C)C)c2c([n+]1C(C)C)C(=O)c1ccccc1C2=O | 5.6 | 
Cc1n(C(C)C)c2c([n+]1C(C)C)C(=O)c1ccccc1C2=O | 25 | 
CCC(C)[n+]1c2c(n(C3CC3)c1C)C(=O)c1ccccc1C2=O (stereo not given) | 13 | 
CCCCCCCC[n+]1c2c(n(CCCC)c1CC)C(=O)c1ccccc1C2=O | 0.49 | 
CCCCn1c(C)nc2c1C(=O)c1ccccc1C2=O | > 50 | 
CCn1c2c([n+](C3CC3)c1C)C(=O)c1ccccc1C2=O | 15 | 
CCn1c(C)nc2c1C(=O)c1ccccc1C2=O | > 50 | 
Cc1n(C2CC2)c2c([n+]1C1CC1)C(=O)c1ccccc1C2=O | 37 | 
CC(C)/N=c1\cc2n(-c3ccc(Cl)cc3)c3ccccc3nc-2cc1Nc1ccc(Cl)cc1 [CLOFAZIMINE] | 0.4 (≈ 0.189 µg/mL) | 0.2 (≈ 0.0947 µg/mL)
Cc1nc2c(n1C(C)C)C(=O)c1ccccc1C2=O | > 50 | 
CCCCCCn1c2c([n+](C(C)CC)c1C)C(=O)c1ccccc1C2=O (stereo not given) | 0.66 | 
CCCC[n+]1c2c(n(CCC)c1C)C(=O)c1ccccc1C2=O | 2.3 | 

Compound | MIC90 [µM] | MIC50 [µM]
CCCC[n+]1c2c(n(CC(C)C)c1C)C(=O)c1ccccc1C2=O | 1.5 | 
CCCCCCCCn1c(C)nc2c1C(=O)c1ccccc1C2=O | 11 (≈ 3.57 µg/mL) | 
CCCCCC[n+]1c2c(n(CCCC)c1C)C(=O)c1ccccc1C2=O | 0.43 | 
CCCCn1c2c([n+](CC)c1C)C(=O)c1ccccc1C2=O | 7.7 | 
CCCCCCn1c2c([n+](CCCCCC)c1CC)C(=O)c1ccccc1C2=O | 0.52 | 
CCCCCCCCCCCCn1c(C)nc2ccccc21 | 10 (≈ 3 µg/mL) | 
CCCCCCCCCCCC[n+]1c2c(n(CC(C)C)c1C)C(=O)c1ccccc1C2=O | 0.54 | 
CCCCCCCCCCn1c(C)nc2ccccc21 | 15 (≈ 4.09 µg/mL) | 
CC[n+]1c2c(n(C(C)C)c1C)C(=O)c1ccccc1C2=O | 15 | 
CCCCCCCCCCn1c2c([n+](CCCCCCCCCC)c1C)C(=O)c1ccccc1C2=O | 3.1 | 
CC[n+]1c2c(n(CC(C)C)c1C)C(=O)c1ccccc1C2=O | 4.9 | 
CCCn1c2c([n+](C3CC3)c1C)C(=O)c1ccccc1C2=O | 17 | 
CCn1c2c([n+](CC)c1C)C(=O)c1ccccc1C2=O | 17 | 
CCCC[n+]1c2c(n(C)c1C)C(=O)c1ccccc1C2=O | 6.7 | 
CCCC[n+]1c2c(n(C(C)C)c1C)C(=O)c1ccccc1C2=O | 3.1 | 
CCCn1c2c([n+](CC)c1C)C(=O)c1ccccc1C2=O | 8.3 | 
CCC[n+]1c2c(n(C)c1C)C(=O)c1ccccc1C2=O | 18 | 
CCCCCCCCCCCCn1c2c([n+](CCCCCCCCCCCC)c1C)C(=O)c1ccccc1C2=O | 4.8 | 
CCCCCCCCn1c2c([n+](C3CCC4(CCCCC4)CC3)c1C)C(=O)c1ccccc1C2=O | 0.2 | 0.11
CCC(C)[n+]1c2c(n(CC(C)C)c1C)C(=O)c1ccccc1C2=O (stereo not given) | 3.6 | 

The molecules below were run on Mycobacterium tuberculosis variant bovis BCG (assay: Induction of ROS generation in Mycobacterium bovis BCG ATCC 35734 at <= 1 times of MIC90 after 90 mins by cellrox-green reagent based assay). Details: not given.
Type: functional, organism-based

Compound | Activity
CCCCCCn1c(C)nc2c1C(=O)c1ccccc1C2=O | inactive
CCCCCCCCn1c(C)nc2c1C(=O)c1ccccc1C2=O | inactive

The molecules below were run on Mycobacterium tuberculosis variant bovis BCG (assay: Ratio of MIC for antimycobacterial activity against Mycobacterium bovis BCG ATCC 35734 in absence of glycerol to MIC for antimycobacterial activity against Mycobacterium bovis BCG ATCC 35734 in presence of glycerol). Details: not given.
Type: functional

Compound | Ratio
CCCCCCCC[n+]1c2c(n(CC(C)C)c1C)C(=O)c1ccccc1C2=O | < 2
CCCCCCn1c2c([n+](CCCCCC)c1C)C(=O)c1ccccc1C2=O | < 2
CCCCCC[n+]1c2c(n(CC(C)C)c1C)C(=O)c1ccccc1C2=O | < 2

These molecules were tested on Mycobacterium tuberculosis variant bovis BCG (assay: Bactericidal activity against Mycobacterium bovis BCG ATCC 35734 incubated for 5 days by broth dilution method). Details: ATCC 35734, 120 h, time 5 day, read-out: MBC99.9.
Type: functional

Compound | MBC [µM]
CCCCCCn1c2c([n+](CCCCCC)c1C)C(=O)c1ccccc1C2=O | 0.64
CCCCCCn1c2c([n+](C3CCC4(CCCCC4)CC3)c1C)C(=O)c1ccccc1C2=O | 0.2
CCCCCCCCn1c2c([n+](C3CCC4(CCCCC4)CC3)c1C)C(=O)c1ccccc1C2=O | 0.2
